Assay results reported in publication PMC9506414, “Novel 2,6,9-Trisubstituted Purines as Potent CDK Inhibitors Alleviating Trastuzumab-Resistance of HER2-Positive Breast Cancers” (Pharmaceuticals, 2022).
Like-named read-outs stand apart in the source and are kept apart here.

Assays:
WNT1 [1] = test: Western blot of WNT1 in HCC1954 cells; assay type: cell-based, human; details: 40 and 200 nM, 24 h
From the text: (§1) For Western blot analysis, the following antibodies were used: anti-Pol II CTD (2629S, Cell Signaling Technology, Danvers, MA, USA), anti-Pol II p-CTD (Ser2) (13499S, Cell Signaling Technology), anti-cyclinK (A301-939A-M, Bethyl Laboratories), anti-IRS1 (3407S, Cell Signaling Technology), anti-WNT1 (SC-514531, Santa Cruz Biotechnology, Dallas, TX, USA), anti-β-actin (MAB1501R, Millipore, Burlington, MA, USA), and horseradish peroxidase (HRP)-conjugated secondary antibodies (anti-mouse GTX213112-01; anti-rabbit GTX213110-01) (Genetex, Irvine, CA, USA).
(§2) Cells were lysed with lysis buffer containing 50 mM Tris pH 7.4, 150 mM NaCl, 1 mM EDTA, 1% NP-40, and 0.25% sodium deoxycholate supplemented with protease-inhibitor and phosphatase-inhibitor cocktails. The lysate samples (25 μg/lane) were loaded onto 6–12% sodium dodecyl sulfate polyacrylamide gel and separated by electrophoresis (SDS-PAGE). The proteins were transferred to nitrocellulose membrane (Gelman Sciences, Ann Arbor, MI, USA) by electroblotting. The membranes were blocked with 5% non-fat dry milk (MB Cell, Seoul, Korea), incubated with primary antibodies for overnight at 4 °C. After the washing steps were performed with TBST solution, the membranes were incubated with HRP-conjugated secondary antibodies for 1 h at rt. […]

CYP2C9 = CYP2C9 (Homo sapiens, UniProt P11712); test: CYP inhibition; assay type: in vitro ADME
Experimental: Table 6 In vitro liver metabolic stability and activity against CYPs of potent analogues. | column: CYP % Activity at 10 μM / 2C9

SK-Br3 cells = test: Antiproliferation assay (Cell-titer Glo, 72 h); assay type: cell-based; details: Homo sapiens, SK-BR-3
Procedure, shortened: (§3)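 Cells in RPMI/10% FBS were seeded at 5000 (SK-Br3) or 1000 (HCC-1954) per well and allowed 24 h to settle. Compounds were pin-transferred as 3-fold, 10-point duplicate series from a 10 mM stock and incubated 72 h at 37 °C. Viability was read by CellTiter-Glo luminescence and IC50 obtained by curve fitting.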

HCC1954 cells = test: Antiproliferation assay (Cell-titer Glo, 72 h); assay type: cell-based; details: Homo sapiens
Procedure, shortened: as §3

WNT1 [2] = test: Western blot of WNT1 in SK-Br3 cells; assay type: cell-based, human; details: 40 and 200 nM, 24 h
From the text: as §1, §2

cyclinK [3] = test: Western blot of cyclinK in HCC1954 cells; assay type: cell-based, human; details: 40 and 200 nM (dinaciclib 40 nM), 2 h
Experimental: (§4) The proteins were transferred to nitrocellulose membrane (Gelman Sciences, Ann Arbor, MI, USA) by electroblotting. The membranes were blocked with 5% non-fat dry milk (MB Cell, Seoul, Korea), incubated with primary antibodies for overnight at 4 °C. After the washing steps were performed with TBST solution, the membranes were incubated with HRP-conjugated secondary antibodies for 1 h at rt. After the secondary washing steps using TBST solution, protein bands on the membranes were visualized using enhanced chemiluminescence ECL detection reagent (Biorad Laboratories, Hercules, CA, USA).

IRS1 = test: Western blot of IRS1 in HCC1954 cells; assay type: cell-based, human; details: 40 and 200 nM, 24 h
From the text: as §1, §2

cyclinK [4] = test: Western blot of cyclinK in SK-Br3 cells; assay type: cell-based, human; details: 2 h
Experimental: as §4

CDK12/CyclinK = CDK12/CyclinK (Homo sapiens, UniProt Q9NYV4); test: In vitro CDK12/cyclinK kinase assay; assay type: biochemical; set-up: purchased Reaction Biology Corp. (CRO that ran the assay); details: Table 5; means and standard deviations from three independent assays; read-out: CDK12/CyclinK (IC50/μM)
Experimental: In vitro CDK12/cyclinK assays for all compounds and in vitro kinome-wide inhibition profiling of 30d at 10 μM were performed by a CRO company (Reaction Biology Corp., San Diego, CA, USA).

[5] = In vitro liver microsomal stability; assay type: in vitro ADME; details: liver microsomes, pH 7.4, 30 m at 37 °C with NADPH regeneration system
Experimental: Each compound (final 1 μM, duplicated) was added to each 0.1 M PBS solution (pH 7.4) containing liver microsome of three different species (human, dog, mouse). After a brief (5 m) incubation at 37 °C, the NADPH regeneration system (Promega Corp., Madison, WI, USA) was added, then the mixture was incubated at 37 °C for 30 m. The reaction was terminated by adding acetonitrile containing an internal standard (chlorpropamide), then the mixture was centrifuged at 15,000 rpm, 4 °C for 5 m. The supernatant solution was injected to LC/MS/MS system (TSQ Vantage Triple-Stage Quadrupole Mass Spectrometer, ThermoFisher Scientific, Waltham, MA, USA). The remaining substrates were analyzed with Xcalibur 4.4 s/w using an MRM (multiple reaction monitoring) quantitation mode.

CYP2D6 = CYP2D6 (Homo sapiens, UniProt P10635); test: CYP inhibition; assay type: in vitro ADME
Experimental: Table 6 In vitro liver metabolic stability and activity against CYPs of potent analogues. | column: CYP % Activity at 10 μM / 2D6

Pol II p-CTD (Ser2) [6] = test: Western blot of Pol II p-CTD (Ser2) in HCC1954 cells; assay type: cell-based, human; details: 40 and 200 nM (dinaciclib 40 nM), 2 h
From the text: as §1
(§5) Cells were lysed with lysis buffer containing 50 mM Tris pH 7.4, 150 mM NaCl, 1 mM EDTA, 1% NP-40, and 0.25% sodium deoxycholate supplemented with protease-inhibitor and phosphatase-inhibitor cocktails. The lysate samples (25 μg/lane) were loaded onto 6–12% sodium dodecyl sulfate polyacrylamide gel and separated by electrophoresis (SDS-PAGE). The proteins were transferred to nitrocellulose membrane (Gelman Sciences, Ann Arbor, MI, USA) by electroblotting. The membranes were blocked with 5% non-fat dry milk (MB Cell, Seoul, Korea), incubated with primary antibodies for overnight at 4 °C. After the washing steps were performed with TBST solution, the membranes were incubated with HRP-conjugated secondary antibodies for 1 h at rt. After the secondary washing steps using TBST solution, protein bands on the membranes were visualized using enhanced chemiluminescence ECL detection reagent (Biorad Laboratories, Hercules, CA, USA).

CYP3A4 = CYP3A4 (Homo sapiens, UniProt P08684); test: CYP inhibition; assay type: in vitro ADME
Experimental: Table 6 In vitro liver metabolic stability and activity against CYPs of potent analogues. | column: CYP % Activity at 10 μM / 3A4

Pol II p-CTD (Ser2) [7] = test: Western blot of Pol II p-CTD (Ser2) in SK-Br3 cells; assay type: cell-based, human; details: 2 h
From the text: as §1, §5

[8] = 72 h, means and standard deviations from three independent assays, read-out: SK-Br3 (GI50/μM)
[9] = 72 h, means and standard deviations from three independent assays, read-out: HCC1954 (GI50/μM)
[10] = SK-Br3 cells, 40 and 200 nM (dinaciclib 40 nM)

CYP2D6, sequence (P10635 whole entry): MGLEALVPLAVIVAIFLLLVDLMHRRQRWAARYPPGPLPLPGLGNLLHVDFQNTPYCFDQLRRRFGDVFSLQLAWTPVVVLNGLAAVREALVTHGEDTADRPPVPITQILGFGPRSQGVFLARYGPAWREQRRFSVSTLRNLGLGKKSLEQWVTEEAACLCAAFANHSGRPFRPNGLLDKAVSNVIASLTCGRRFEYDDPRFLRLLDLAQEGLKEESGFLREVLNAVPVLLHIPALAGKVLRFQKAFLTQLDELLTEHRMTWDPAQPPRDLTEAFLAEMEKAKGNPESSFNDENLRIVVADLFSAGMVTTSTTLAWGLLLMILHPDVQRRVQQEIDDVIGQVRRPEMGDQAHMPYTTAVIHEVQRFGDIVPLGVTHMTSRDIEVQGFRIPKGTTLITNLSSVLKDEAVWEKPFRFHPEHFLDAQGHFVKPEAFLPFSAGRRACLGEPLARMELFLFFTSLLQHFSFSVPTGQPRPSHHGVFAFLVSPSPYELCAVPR
CYP2C9, sequence (P11712 whole entry): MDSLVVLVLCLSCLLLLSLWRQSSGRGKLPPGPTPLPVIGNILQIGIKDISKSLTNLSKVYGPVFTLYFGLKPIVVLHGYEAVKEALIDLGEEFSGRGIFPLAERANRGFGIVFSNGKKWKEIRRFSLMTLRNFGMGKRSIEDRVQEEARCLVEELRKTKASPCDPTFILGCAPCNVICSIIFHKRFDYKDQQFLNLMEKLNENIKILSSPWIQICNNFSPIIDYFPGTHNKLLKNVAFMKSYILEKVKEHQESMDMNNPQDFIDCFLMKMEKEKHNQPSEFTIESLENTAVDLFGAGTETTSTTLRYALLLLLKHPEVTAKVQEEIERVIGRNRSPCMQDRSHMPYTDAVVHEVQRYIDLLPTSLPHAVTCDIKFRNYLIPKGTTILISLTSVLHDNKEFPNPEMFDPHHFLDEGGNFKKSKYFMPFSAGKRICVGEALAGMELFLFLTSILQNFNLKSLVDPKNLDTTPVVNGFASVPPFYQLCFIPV
CDK12/CyclinK, sequence (Q9NYV4 whole entry): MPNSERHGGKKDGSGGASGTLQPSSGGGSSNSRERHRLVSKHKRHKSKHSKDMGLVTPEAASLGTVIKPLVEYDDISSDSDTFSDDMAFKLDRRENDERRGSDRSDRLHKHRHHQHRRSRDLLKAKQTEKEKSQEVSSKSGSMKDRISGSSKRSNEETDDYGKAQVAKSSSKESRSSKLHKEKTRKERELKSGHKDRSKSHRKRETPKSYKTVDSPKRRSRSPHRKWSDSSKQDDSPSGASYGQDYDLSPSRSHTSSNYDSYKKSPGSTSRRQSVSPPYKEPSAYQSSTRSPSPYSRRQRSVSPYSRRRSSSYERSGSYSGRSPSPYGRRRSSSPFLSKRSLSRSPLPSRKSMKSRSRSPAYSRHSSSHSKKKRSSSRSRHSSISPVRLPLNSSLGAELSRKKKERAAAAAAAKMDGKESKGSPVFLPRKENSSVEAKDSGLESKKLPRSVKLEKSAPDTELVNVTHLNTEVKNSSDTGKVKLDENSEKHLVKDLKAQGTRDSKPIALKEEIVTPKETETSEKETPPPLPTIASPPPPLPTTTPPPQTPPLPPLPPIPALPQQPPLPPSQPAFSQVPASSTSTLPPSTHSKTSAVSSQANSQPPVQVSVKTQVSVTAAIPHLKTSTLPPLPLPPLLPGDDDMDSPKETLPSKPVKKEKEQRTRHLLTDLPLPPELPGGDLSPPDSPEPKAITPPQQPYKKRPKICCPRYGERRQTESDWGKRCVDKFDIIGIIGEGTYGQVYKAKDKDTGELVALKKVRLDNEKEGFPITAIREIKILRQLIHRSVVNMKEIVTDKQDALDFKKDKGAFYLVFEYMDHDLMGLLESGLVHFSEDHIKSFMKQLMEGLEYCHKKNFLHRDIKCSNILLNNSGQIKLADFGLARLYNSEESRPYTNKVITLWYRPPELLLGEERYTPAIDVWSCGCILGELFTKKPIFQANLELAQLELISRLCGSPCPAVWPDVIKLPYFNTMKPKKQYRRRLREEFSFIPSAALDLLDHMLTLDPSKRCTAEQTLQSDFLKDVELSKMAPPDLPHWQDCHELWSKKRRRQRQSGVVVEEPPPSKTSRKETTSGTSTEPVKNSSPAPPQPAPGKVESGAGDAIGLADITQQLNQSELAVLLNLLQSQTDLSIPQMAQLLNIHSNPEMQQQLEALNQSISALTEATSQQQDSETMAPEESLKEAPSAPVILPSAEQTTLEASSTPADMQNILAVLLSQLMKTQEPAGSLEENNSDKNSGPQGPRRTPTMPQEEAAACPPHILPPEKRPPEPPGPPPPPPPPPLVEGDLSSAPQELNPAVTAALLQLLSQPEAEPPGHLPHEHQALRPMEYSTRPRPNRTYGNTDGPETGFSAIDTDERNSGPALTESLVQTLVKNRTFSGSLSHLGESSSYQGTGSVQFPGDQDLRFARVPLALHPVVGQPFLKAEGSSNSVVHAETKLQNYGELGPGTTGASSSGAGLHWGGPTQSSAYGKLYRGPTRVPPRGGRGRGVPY
CDK12/CyclinK, sequence (O75909 whole entry partner): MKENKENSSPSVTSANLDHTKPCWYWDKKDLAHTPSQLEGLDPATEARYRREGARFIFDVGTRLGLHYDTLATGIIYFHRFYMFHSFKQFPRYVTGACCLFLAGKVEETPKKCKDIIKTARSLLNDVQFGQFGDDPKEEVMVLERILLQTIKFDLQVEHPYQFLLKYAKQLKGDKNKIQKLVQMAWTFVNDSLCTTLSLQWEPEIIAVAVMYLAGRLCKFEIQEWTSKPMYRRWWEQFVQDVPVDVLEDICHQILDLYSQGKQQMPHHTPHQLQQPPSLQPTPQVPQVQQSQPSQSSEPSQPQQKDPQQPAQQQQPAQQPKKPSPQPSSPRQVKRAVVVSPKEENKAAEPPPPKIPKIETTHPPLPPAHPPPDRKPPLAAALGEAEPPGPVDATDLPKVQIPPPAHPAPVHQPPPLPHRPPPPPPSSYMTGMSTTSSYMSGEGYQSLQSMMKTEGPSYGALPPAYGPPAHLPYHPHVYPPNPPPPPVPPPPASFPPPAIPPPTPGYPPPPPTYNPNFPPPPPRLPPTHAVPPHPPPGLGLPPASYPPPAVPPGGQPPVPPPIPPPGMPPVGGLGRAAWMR
CYP3A4, sequence (P08684 whole entry): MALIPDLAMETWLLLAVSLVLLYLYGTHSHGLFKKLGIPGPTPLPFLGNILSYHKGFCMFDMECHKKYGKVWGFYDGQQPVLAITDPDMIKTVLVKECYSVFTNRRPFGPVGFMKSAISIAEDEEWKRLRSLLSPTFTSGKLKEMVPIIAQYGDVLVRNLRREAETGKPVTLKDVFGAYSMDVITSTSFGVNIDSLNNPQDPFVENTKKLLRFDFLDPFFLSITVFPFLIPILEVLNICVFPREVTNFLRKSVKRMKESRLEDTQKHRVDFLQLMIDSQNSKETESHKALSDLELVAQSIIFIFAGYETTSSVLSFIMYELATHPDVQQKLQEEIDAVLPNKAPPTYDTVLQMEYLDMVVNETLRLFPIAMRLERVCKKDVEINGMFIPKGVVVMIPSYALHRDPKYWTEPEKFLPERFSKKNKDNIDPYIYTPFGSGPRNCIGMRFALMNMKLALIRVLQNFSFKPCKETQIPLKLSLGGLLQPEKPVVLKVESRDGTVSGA

Row | Structure (SMILES) | WNT1 expression level (Western blot) (WNT1 [1]) | CYP % Activity at 10 μM 2C9 (CYP2C9) [%] | GI50 (SK-Br3 cells; [8]) [µM] | GI50 (SK-Br3 cells; read-out: SK-Br3 GI50) [µM] | GI50 (HCC1954 cells; [9]) [µM] | GI50 (HCC1954 cells; read-out: HCC1954 GI50) [µM] | WNT1 expression level (Western blot) (WNT1 [2]) | cyclinK level (Western blot) (cyclinK [3]) | IRS1 expression level (Western blot) (IRS1) | cyclinK level (Western blot) (cyclinK [4]; [10]) | IC50 (CDK12/CyclinK) [µM] | remaining at 30 min, 1 μM ([5]; dog) [%] | remaining at 30 min, 1 μM ([5]; human) [%] | remaining at 30 min, 1 μM ([5]; mouse) [%] | CYP % Activity at 10 μM 2D6 (CYP2D6) [%] | PolII p-CTD (Ser2) level (Western blot) (Pol II p-CTD (Ser2) [6]) | CYP % Activity at 10 μM 3A4 (CYP3A4) [%] | PolII p-CTD (Ser2) level (Western blot) (Pol II p-CTD (Ser2) [7]; [10]) | cyclinK level (Western blot) (cyclinK [4]; SK-Br3 cells, 0.2, 1 μM) | PolII p-CTD (Ser2) level (Western blot) (Pol II p-CTD (Ser2) [7]; SK-Br3 cells, 0.2, 1 μM)
1 | CCn1cnc2c(NCc3ccc(-c4ccccn4)nc3)nc(-c3ccc(N)nc3)nc21 [Compound 30d, N-([2,2′-Bipyridin]-5-ylmethyl)-2-(6-aminopyridin-3-yl)-9-ethyl-9H-purin-6-amine] | strong suppression of IRS1 and WNT1 | 57.9 | 0.046 ± 0.007 | 0.046 to 0.052 | 0.036 ± 0.005 | 0.034 to 0.036 | strong suppression of IRS1 and WNT1 | greatly downregulated in a dose-dependent manner | strong suppression of IRS1 and WNT1 | greatly downregulated in a dose-dependent manner | 0.021 ± 0.007 | 46.2 | 64.8 | 49.9 | 81.0 | strong, dose-dependent suppression | 43.0 | strong, dose-dependent suppression | – | –
2 | CCn1cnc2c(NCc3ccc(-c4ccccn4)nc3)nc(-c3cnc(N)nc3)nc21 [Compound 30e, N-([2,2′-Bipyridin]-5-ylmethyl)-2-(2-aminopyrimidin-5-yl)-9-ethyl-9H-purin-6-amine] | strong suppression of IRS1 and WNT1 | 81.6 | 0.052 ± 0.003 | 0.046 to 0.052 | 0.034 ± 0.002 | 0.034 to 0.036 | strong suppression of IRS1 and WNT1 | greatly downregulated in a dose-dependent manner | strong suppression of IRS1 and WNT1 | greatly downregulated in a dose-dependent manner | 0.085 ± 0.011 | 67.6 | 100 | 85 | 92.1 | strong, dose-dependent suppression | 92.8 | strong, dose-dependent suppression | – | –
3 | CCc1cnn2c(NCc3ccc[n+]([O-])c3)cc(N3CCCC[C@H]3CCO)nc12 [Dinaciclib] | – | – | 0.012 ± 0.001 | – | 0.012 ± 0.001 | – | – | only a marginal downregulation of cyclinK | – | only a marginal downregulation of cyclinK | – | – | – | – | – | more potent inhibition of PolII CTD phosphorylation | – | more potent inhibition of PolII CTD phosphorylation | marginal activity in downrgulating cyclinK | strongly suppressed PolII p-CTD
